Assay results published in PMC2944806, “HLA Class I Binding of HBZ Determines Outcome in HTLV-1 Infection” (PLoS Pathogens, 2010).

Key:
[1] = molecular target: T1, HLA class I molecule B*0702 (Homo sapiens, UniProt P01889); experiment: REVEAL HLA-peptide binding assay, B*0702; design: concentration or dose not given beside the values; conditions: assembly of peptide-HLA complex by ELISA with conformation-dependent anti-HLA antibody, relative to positive control peptide for that allele, comparable within an allele only
T1 construct: purchased ProImmune Ltd., Oxford, UK
Protocol: (§1) The REVEAL HLA-peptide binding assay (ProImmune Ltd., Oxford, UK) was used to quantify peptide-HLA binding. For each allele-peptide combination that was tested, assembly of peptide-HLA complexes was quantified by ELISA with a conformation-dependent anti-HLA antibody. Samples of assembling peptide-HLA complexes were taken at a defined time point and snap-frozen in liquid nitrogen prior to analysis. The assembly for each peptide-HLA complex was then compared against a positive control peptide for that allele as the percentage of assembled peptide relative to that control. We selected four HLA class I alleles and 50 HTLV-1 peptides for each allele. The allele choice was based on allele frequency in the Kagoshima database and included 2 A alleles and 2 B alleles as well as alleles for which we knew that the epitope prediction tended to be poor. The 50 HTLV-1 nonamer peptides for each allele were selected to represent a range of predicted binding affinities, from weak to strong binding peptides. They originated from 4 HTLV-1 reference strain proteins: Tax, HBZ, Gag and Polymerase.
(§2) Note the binding score is with respect to a reference good binding peptide for each allele and therefore scores can be compared within an allele but not between alleles.

[2] = molecular target: HLA class I molecule B*3501 (Homo sapiens, UniProt P01889, A329T/A93T/A95T/C349S/D201E/D98Y/E176V/E187L/E204Q/E69T/I218V/K202T/L119I/Q94N/R155S/R180L/S121R/S35A/S48A/T118I/V127L/V306I/V36M/Y140S/Y91F); experiment: REVEAL HLA-peptide binding assay, B*3501; conditions: assembly of peptide-HLA complex by ELISA with conformation-dependent anti-HLA antibody, relative to positive control peptide for that allele, comparable within an allele only
Protocol: as §1, §2

[3] = molecular target: T2, HLA class I molecule A*0201 (Homo sapiens, UniProt P04439, D140Y/D185E/D98H/E176V/E277Q/G131W/G231S/I119V/I121R/I166T/I218V/L300P/L318F/N151K/N90K/P208A/P217A/Q86G/Q94H/R138H/R169H/T345S); assay type: binding; conditions: REVEAL assay, assembly of peptide-HLA complex by ELISA with conformation-dependent anti-HLA antibody, relative to positive control peptide for that allele, comparable within an allele only
T2 construct: purchased ProImmune Ltd., Oxford, UK

[4] = molecular target: T3, HLA class I molecule A*2402 (Homo sapiens, UniProt P04439, D101N/D140Y/D185E/E176V/E190D/F33S/G103R/G107R/I119L/I121M/I306V/K335N/L105A/L180Q/L300P/N151K/N90K/Q86E/Q94H/R106L/R138H/R89G/T104I/T345S/V100E/W191G/Y123F); assay type: binding; conditions: REVEAL assay, assembly of peptide-HLA complex by ELISA with conformation-dependent anti-HLA antibody, relative to positive control peptide for that allele, comparable within an allele only
T3 construct: purchased ProImmune Ltd., Oxford, UK

| Sequence | Score (experimentally measured binding affinity, % binding compared to control peptide) [1] [%] | Score (experimentally measured binding affinity, % binding compared to control peptide) [4] [%] | also measured |
| --- | --- | --- | --- |
| AASGLFRCL [HTLV-1 nonamer peptide] | 107.28 |  | Score (experimentally measured binding affinity, % binding compared to control peptide) [2]: 7.33% |
| APLPHTSQC [HTLV-1 nonamer peptide] | 135.12 |  |  |
| DPISRLNAL [HTLV-1 nonamer peptide] | 115.84 |  | Score (experimentally measured binding affinity, % binding compared to control peptide) [2]: 67.38% |
| FPGFGQSLL [HTLV-1 nonamer peptide] | 102.99 |  | Score (experimentally measured binding affinity, % binding compared to control peptide) [2]: 55.31% |
| HPGQLGAFL [HTLV-1 nonamer peptide] | 60.82 |  | Score (experimentally measured binding affinity, % binding compared to control peptide) [2]: 34.24% |
| HQLKKFLKI [HTLV-1 nonamer peptide] |  | 46.49 | Score (experimentally measured binding affinity, % binding compared to control peptide) [3]: 0% |
| IALETPARI [HTLV-1 nonamer peptide] |  | 9.68 | Score (experimentally measured binding affinity, % binding compared to control peptide) [3]: 17.01% |
| KARRRRRAE [HTLV-1 nonamer peptide] | 0 |  |  |
| KISLTTGAL [HTLV-1 nonamer peptide] | 71.26 |  | Score (experimentally measured binding affinity, % binding compared to control peptide) [3]: 3.54% |
| LEAERRKLL [HTLV-1 nonamer peptide] | 1.08 |  |  |
| LPFHSTLTT [HTLV-1 nonamer peptide] | 97.77 |  | Score (experimentally measured binding affinity, % binding compared to control peptide) [2]: 102.24% |
| LPGLNSRQW [HTLV-1 nonamer peptide] | 6.78 |  |  |
| LPVMHPHGA [HTLV-1 nonamer peptide] | 9.38 |  |  |
| LPVSCPEDL [HTLV-1 nonamer peptide] | 6.44 |  | Score (experimentally measured binding affinity, % binding compared to control peptide) [2]: 74.86% |
| LSPPITWPL [HTLV-1 nonamer peptide] |  | 4.52 | Score (experimentally measured binding affinity, % binding compared to control peptide) [3]: 34.53%; Score (experimentally measured binding affinity, % binding compared to control peptide) [2]: 41.83% |
| LVLQSSSFI [HTLV-1 nonamer peptide] | 1.65 |  | Score (experimentally measured binding affinity, % binding compared to control peptide) [3]: 41.33% |
| LWLAAFAAL [HTLV-1 nonamer peptide] |  | 30.63 |  |
| MPVFTLSPV [HTLV-1 nonamer peptide from Pol] | 142.96 |  | Score (experimentally measured binding affinity, % binding compared to control peptide) [2]: 114.77% |
| NFLQAAYRL [HTLV-1 nonamer peptide] |  | 113.8 | Score (experimentally measured binding affinity, % binding compared to control peptide) [2]: 3.16% |
| NYSLLASLL [HTLV-1 nonamer peptide] |  | 105.08 |  |
| PPNHRPWQM [HTLV-1 nonamer peptide] | 103.11 |  |  |
| PYHAFVERL [HTLV-1 nonamer peptide] |  | 113.04 |  |
| PYKRIEELL [HTLV-1 nonamer peptide] |  | 99.06 |  |
| PYNPTSSGL [HTLV-1 nonamer peptide] |  | 104.86 |  |
| QPARAPVTL [HTLV-1 nonamer peptide] | 135.43 |  | Score (experimentally measured binding affinity, % binding compared to control peptide) [2]: 55.56% |
| QPRPPPGPC [HTLV-1 nonamer peptide] | 138.82 |  |  |

| Sequence | Score (experimentally measured binding affinity, % binding compared to control peptide) [1] [%] | Score (experimentally measured binding affinity, % binding compared to control peptide) [4] [%] | also measured |
| --- | --- | --- | --- |
| QYLCSSLVA [HTLV-1 nonamer peptide] |  | 4.85 |  |
| RAEKKAADV [HTLV-1 nonamer peptide] | 2.78 |  |  |
| RDRQRRAEE [HTLV-1 nonamer peptide] | 1.54 |  |  |
| RGRLRRGPP [HTLV-1 nonamer peptide] | 1.21 |  |  |
| RPAPPPPSS [HTLV-1 nonamer peptide] | 93.08 |  |  |
| RPPRGLAAH [HTLV-1 nonamer peptide] | 143.59 |  | Score (experimentally measured binding affinity, % binding compared to control peptide) [2]: 34.86% |
| RRRAEKKAA [HTLV-1 nonamer peptide] | 0 |  |  |
| SARLHRHAL [HTLV-1 nonamer peptide] | 236.66 |  |  |
| SFLLSHGLI [HTLV-1 nonamer peptide] |  | 79.27 |  |
| STLTTPGLI [HTLV-1 nonamer peptide] |  | 0 | Score (experimentally measured binding affinity, % binding compared to control peptide) [3]: 0.84% |
| SWASILQGL [HTLV-1 nonamer peptide] |  | 123.67 |  |
| SYGLLCQTI [HTLV-1 nonamer peptide] |  | 114.37 |  |
| TPKDKTKVL [HTLV-1 nonamer peptide from Gag] | 113.7 |  |  |
| TPNIPPSFL [HTLV-1 nonamer peptide] | 138.52 |  |  |
| TTPGLIWTF [HTLV-1 nonamer peptide] |  | 215.15 |  |
| TTPNIPPSF [HTLV-1 nonamer peptide] |  | 0.43 |  |
| TWPLLPHVI [HTLV-1 nonamer peptide] |  | 118.19 |  |
| VFTLSPVII [HTLV-1 nonamer peptide] |  | 97.21 |  |
| VLQSSSFIF [HTLV-1 nonamer peptide] |  | 82.42 |  |
| VPIRSRWAL [HTLV-1 nonamer peptide] | 125.64 |  |  |
| VPYKRIEEL [HTLV-1 nonamer peptide] | 133.31 |  |  |
| VSCPEDLLV [HTLV-1 nonamer peptide] |  | 9.6 |  |
| WQGRLEAMW [HTLV-1 nonamer peptide] |  | 2.54 |  |
| WQMKDLQAI [HTLV-1 nonamer peptide] |  | 0 | Score (experimentally measured binding affinity, % binding compared to control peptide) [3]: 44.68% |
| YPGRVNEIL [HTLV-1 nonamer peptide] | 158.86 |  | Score (experimentally measured binding affinity, % binding compared to control peptide) [2]: 109.69% |
| YWQGRLEAM [HTLV-1 nonamer peptide] |  | 40.32 | Score (experimentally measured binding affinity, % binding compared to control peptide) [2]: 7.1% |
